Experimental data: US6197802A, “Fungicidal melithiazole derivatives” (American Cyanamid Co., priority 1997, dated 2001)
In brackets after ≈: the same amount, converted by molar mass. Read-outs that look alike come from different tables or passages of the source.

Assays:
[1] = test system: Hansenula anomala; assay: Serial dilution test, Minimum Inhibitory Concentration, Hansenula anomala (HNA); type: cell-based; conditions: read-out: MIC (HNA)
Experimental: (§1) Determination of Minimum Inhibitory Concentration by Test Compounds in the Serial Dilution Test with Botrytis cinera (BOC), and Hansenula anomala (HNA).
(§2) The MIC (Minimum Inhibitory Concentration) value, which indicates the lowest concentration of the active ingredient in the growth medium which causes a total inhibition of mycelial growth, is determined by serial dilution tests. The compounds of the invention have been compared with known melithiazole C. melithiazole C-amide and with the commercially available strobilurines kresoxim-methyl (BASF AG) and azoxystrobin (ZENECA).

[2] = test system: Botrytis cinera; assay: Serial dilution test, Minimum Inhibitory Concentration, Botrytis cinera (BOC); type: cell-based; conditions: read-out: MIC (BOC)
Experimental: as §1, §2

[3] = test system: mouse fibroblasts (cell line L929); assay: Toxicity using mouse fibroblasts (cell line L929); type: cell-based; conditions: for Therapeutic Index: ratio toxicity IC50 (L929) / BOC-MIC
Text: In addition, the toxicity IC50 of these compounds has been evaluated using mouse fibroblasts (cell line L929). The therapeutic index given is defined as the ratio between the toxicity and the BOC-MIC value (IC50 /MIC).

[4] = test system: powdery mildew (Erysiphe graminis) on wheat; assay: Foliar systemicity in wheat leaves, wheat powdery mildew as indicator disease; conditions: for Systemicity distal (disease free zone) / Systemicity proximal (disease free zone): wheat leaves, band application of 400 ppm solution; for Systemicity distal (disease free zone): toward leaf apex; for Systemicity proximal (disease free zone): toward leaf base
Text: Foliar systemicity: When the primary leaves of wheat planted in 8 cm diameter pots in the greenhouse were fully expanded, the plants were cut back to four leaves in each pot of which two were marked with a permanent marker 5 cm below the leaf tip on the upper leaf surface. Thus there were two band-treated and two untreated plants in each pot. […] The application band covered the whole leaf width. After application and after the bands were dried, the plants were moved to the greenhouse and kept there for 2 days to allow for movement of the compounds. The plants were kept by bottom watering. The plants were then inoculated by dusting them with powdery mildew conidia (Erysiphe graminis). Evaluations were made 7-8 days after inoculation. Distal and proximal movement were assessed as follows: The distal and proximal disease free zones on the upper leaf surface were measured in mm. The distal direction is from the band toward the leaf apex and the proximal direction is from the band towards the leaf base.

[5] = test system: phytopathogenic fungi; assay: Curative in-vivo tests, overall statement; conditions: overall statement in words
Experimental: Test Plants: Test plants were grown up in the greenhouse. Either seed, pregerminated seed or rooted vegetative plant material was planted in pots containing a fertilized soil/peat mixture. Test plants were used for treating them with the various fungicides when they were in the 3-4 leaf stage. The number of leaves of vegetatively propagated plant material was cut back to 3-4 leaves per plant.
Application: Test plants were treated with fungicides either 1 or 3 days before (protective treatments) or 2 or 3 days after (curative treatments) the inoculation with a pathogen. The test compounds were applied to the test plants using a lateral-nozzle sprayer with a turntable rotating the pots, or the test compounds were applied with an hand-held airbrush. 24 plants were used per treatment.
Compounds: Technical material of the compound according to the invention coded MCM, and of commercially available strobilurines kresoxim-methyl (BASF) and azoxystrobin (ZENECA) was dissolved in acetone with 0.5% Triton X155 at a concentration of 0.5%. […]
Assessment of diseases: The percentage of leaf area infected was assessed by visual estimation when untreated control plants were just completely diseased. Each plant was individually evaluated and then the mean infection rating was calculated for each treatment. The fungicidal activity was calculated using the following formula: [formula] […]

[6] = test system: Plasmopara viticola; assay: Protective (1 d res) activity, grape downy mildew (GDM); type: in vivo; conditions: 1 d protective
[7] = test system: Phytophthora infestans; type: in vivo; conditions: 1 d protective
[8] = test system: Pyrenophora teres; assay: Protective (1 d res) activity, barley net blotch (BNB); type: in vivo; conditions: 1 d protective
[9] = test system: Plasmopara viticola; assay: Curative (2 d cur) activity, grape downy mildew (GDM); type: in vivo; conditions: 2 d curative
[10] = test system: Bortrytis cinera; conditions: poster of B. Bohlendorf et al., 1996; cited from earlier work
[11] = total inhibition of mycelial growth
[12] = Botrytis cinera, total inhibition of mycelial growth
[13] = toxicity, mouse fibroblasts L929, read-out: IC50

Compound | MIC [1, 11] | MIC [2, 12] | Therapeutic Index [3] | IC50 [3, 13] | also measured
CCOC(=O)/C=C(/OC)[C@H](C)[C@H](/C=C/c1csc(C(C)=NOC)n1)OC (mixture of isomers) [(E/Z)-(13/14)] | 0.02 µg/mL | 0.005 µg/mL | 40 | 0.2 µg/mL | –
CON=C(C)c1nc(/C=C/[C@H](OC)[C@@H](C)/C(=C\C(=O)OC)OC)cs1 (mixture of isomers) [MCM] | – | – | – | – | foliar systemicity ([4]; overall statement in words): better than that of the commercialized strobilurine derivatives kresoxim-methyl and azoxystrobin; bioavailable ([4]; plant, implied by foliar systemicity and curative values): readily and highly bioavailable; Systemicity distal (disease free zone) [4]: 50 mm; Systemicity proximal (disease free zone) [4]: 21 mm; curative activity [5]: better than that of the commercialized strobilurine derivatives kresoxim-methyl and azoxystrobin; activity (%) GDM 1 d res ([6]; dose 4 ppm): 92%; activity (%) GDM 1 d res ([6]; dose 20 ppm): 100%; activity (%) TLB 1 d res ([7]; dose 4 ppm): 25%; activity (%) TLB 1 d res ([7]; dose 20 ppm): 65%; activity (%) BNB 1 d res ([8]; dose 4 ppm): 100%; activity (%) BNB 1 d res ([8]; dose 20 ppm): 100%; activity (%) GDM 2d cur ([9]; dose 4 ppm): 0%; activity (%) GDM 2d cur ([9]; dose 20 ppm): 59%
CO/C(=C/C(N)=O)[C@H](C)[C@H](/C=C/c1csc(C(C)=O)n1)OC [1:melithiazole C-amide, 7-(2-acetylthiazol-4-yl)-3,5-dimethoxy-4-methylheptan-2,6-dienoic amide, reference compound] | > 10 µg/mL | > 10 µg/mL | < 0.8 | 8 µg/mL (≈ 24.7 µM) | –
COC(=O)/C=C(/OC)[C@H](C)[C@H](/C=C/c1csc(C(C)=O)n1)OC [2:melithiazole C, methyl 7-(2-acetylthiazol-4-yl)-3,5-dimethoxy-4-methylheptan-2,6-dienoate, reference compound] | 3 µg/mL (≈ 8.84 µM) | 1.5 µg/mL (≈ 4.42 µM) | 0.37 | 0.55 µg/mL (≈ 1.62 µM) | in vitro activity against Bortrytis cinera [10]: weak in vitro activity
CO/N=C(\C)c1nc(/C=C/[C@H](OC)[C@@H](C)/C(=C\C(=O)OC)OC)cs1 [8:(E)-MCM] | 0.08 µg/mL (≈ 0.217 µM) | 0.0025 µg/mL (≈ 0.00679 µM) | 160 | 0.4 µg/mL (≈ 1.09 µM) | –
CO/N=C(/C)c1nc(/C=C/[C@H](OC)[C@@H](C)/C(=C\C(=O)OC)OC)cs1 [8:(Z)-MCM] | 0.08 µg/mL (≈ 0.217 µM) | 0.005 µg/mL (≈ 0.0136 µM) | 100 | 0.5 µg/mL (≈ 1.36 µM) | –
COC(=O)/C=C(/OC)[C@H](C)[C@H](/C=C/c1csc(/C(C)=N\OCc2ccccc2)n1)OC [Example 9] | 0.6 µg/mL (≈ 1.35 µM) | 0.15 µg/mL (≈ 0.337 µM) | 3.33 | 0.5 µg/mL (≈ 1.12 µM) | –
COC(=O)/C=C(/OC)[C@H](C)[C@H](/C=C/c1csc(/C(C)=N/OCc2ccccc2)n1)OC [Example 10] | 0.3 µg/mL (≈ 0.675 µM) | 0.04 µg/mL (≈ 0.09 µM) | 1.25 | 0.05 µg/mL (≈ 0.112 µM) | –
COC(=O)/C=C(/OC)[C@H](C)[C@H](/C=C/c1csc(C(C)OC(C)=O)n1)OC (some centres unmarked) [Example 20, Methyl 7-[2-(1-acetoxyethyl)thiazol-4-yl]-3,5-dimethoxy-4-methylheptan-2,6-dienoate] | 1.25 µg/mL (≈ 3.26 µM) | 0.3 µg/mL (≈ 0.782 µM) | > 13.33 | > 4 µg/mL | –
COC(=O)/C=C(/OC)[C@H](C)[C@H](/C=C/c1csc(C(C)OC)n1)OC (some centres unmarked) [Example 21, Methyl 7-[2-(1-methoxyethyl)thiazol-4-yl]-3,5-dimethoxy-4-methylheptan-2,6-dienoate] | 0.08 µg/mL (≈ 0.225 µM) | 0.15 µg/mL (≈ 0.422 µM) | 13.33 | 2 µg/mL (≈ 5.63 µM) | –
C=C(C)c1nc(/C=C/[C@H](OC)[C@@H](C)/C(=C\C(=O)OC)OC)cs1 [Example 29, Methyl 7-[2-isopropenylthiazol-4-yl]-3,5-dimethoxy-4-methylheptan-2,6-dienoate] | – | – | 100 | – | MIC [1]: 0.3 µg/mL (≈ 0.889 µM); MIC ([2]; Botrytis): 0.02 µg/mL (≈ 0.0593 µM); IC50 ([3]; Mus musculus, L929): 2 µg/mL (≈ 5.93 µM)
COC(=O)/C=C(/OC)[C@H](C)[C@H](/C=C/c1csc(C2(C)CO2)n1)OC (some centres unmarked) [Example 41, Methyl 7-[2-(1,2-epoxy-1-methylethyl)thiazol-4-yl]-3,5-dimethoxy-4-methylheptan-2,6-dienoate] | – | – | > 6.17 | – | MIC [1]: 5 µg/mL (≈ 14.1 µM); MIC ([2]; Botrytis): 0.6 µg/mL (≈ 1.7 µM); IC50 ([3]; Mus musculus, L929): > 3.7 µg/mL
CO/C=C(/C(=O)OC)c1ccccc1Oc1cc(Oc2ccccc2C#N)ncn1 [azoxystrobin, reference compound] | – | – | – | – | Systemicity distal (disease free zone) [4]: 43 mm; Systemicity proximal (disease free zone) [4]: 9 mm
CO/N=C(/C(=O)OC)c1ccccc1COc1ccccc1C [kresoxim-methyl, reference compound] | – | 0.1 µg/mL (≈ 0.319 µM) | 3.75 | 0.375 µg/mL (≈ 1.2 µM) | Systemicity distal (disease free zone) [4]: 23 mm; Systemicity proximal (disease free zone) [4]: 13 mm; activity (%) GDM 1 d res ([6]; dose 4 ppm): 39%; activity (%) GDM 1 d res ([6]; dose 20 ppm): 87%; activity (%) BNB 1 d res ([8]; dose 4 ppm): 97%; activity (%) BNB 1 d res ([8]; dose 20 ppm): 98%; activity (%) GDM 2d cur ([9]; dose 4 ppm): 0%; activity (%) GDM 2d cur ([9]; dose 20 ppm): 9%
